According to patent US8957022B2, “Multimeric tie 2 agonists and uses thereof in stimulating angiogenesis” (Sunnybrook Health Sciences Centre, priority 2006, dated 2015):

Assays:
[1] = system: MAPK, AKT and eNOS; assay: Phosphorylation of downstream signalling proteins in HUVEC (immunoblot); assay type: cell-based, human
Description: Having established that Vasculotide was able to bind Tie 2 (see Example 2), the ability of Vasculotide, when clustered with avidin in a 4:1 ratio (Vasculotide:avidin), to activate the Tie 2 receptor was tested by examining several well established downstream signalling pathways in human umbilical vein endothelial cells (HUVEC) (Cambrex, N.J.). Such signalling pathways are described in, for example, Kim, I. et al. (2000) Circ. Res. 9:952-959; Fujikawa, K. et al. (1999) Exp. Cell. Res. 2:663-672; Babaei, S. et al. (2003) Am. J. Pathol. 6:1927-1936.
HUVEC were grown on 6-well or 10 cm plates (Nunc) coated with gelatin (Sigma). HUVEC were cultured in F12 growth medium containing 10% fetal bovine serum (FBS), 0.1 mg/ml heparin sulphate, 1× penicillin, 1× streptomycin, 1× glutamine, VEGF 10 ng/ml, EGF 10 ng/ml, bFGF 5 ng/ml. All HUVEC were used between passage 3-9.
HUVEC were stimulated with one of either Ang 1 (R&D Systems), Vasculotide, avidin or clustered Vasculotide (preclustered with a 4:1 molar ratio of peptide:avidin in PBS for 2 hours at 4° C.) at various doses. Stimulations with Vasculotide were performed in full serum containing growth media for 15 minutes unless otherwise indicated. Cell lysate preparations and immunoblot analysis were performed by standard methods. […]

[2] = system: MMP2; assay: Gelatin zymography of HUVEC conditioned media; assay type: cell-based, human; conditions: HUVEC, 0.1% FBS, 16 h, various concentrations
Description: In vivo, ECs can not migrate until they secrete enzymes necessary to break down components of the extra cellular matrix. Gelatin zymography was employed to determine if clustered Vasculotide promoted secretion of MMP2. To perform the zymography, HUVEC were cultured in F12 media plus 0.1% FBS and stimulated for 16 h with VEGF, unclustered Vasculotide or clustered Vasculotide at various concentrations. Conditioned media was centrifuged to remove cellular debris and prepared for gel electrophoresis using non-reducing conditions. Gels were washed twice for 30 minutes in 2.5% Triton X-100 to remove sodium dodecyl sulfate and were then incubated in substrate buffer (50 mmol/L Tris-HCl, pH 8.8, 5 mmol/L CaCl2) for 16 hours at 37° C. Gels were then stained with 0.5% Coomassie blue in 30% methanol/10% acetic acid for 2 hours at room temperature and destained in 50% methanol/10% acetic acid. The presence of metalloproteinases was indicated by unstained proteolytic zones in the gel.

clustered Vasculotide: Vasculotide clustered with avidin in a 4:1 ratio, an obligate tetrameric compound
pMAPK and pAKT in the time course ([1]; 10% FBS): marked increases in pMAPK and pAKT | Phosphorylation of Tie 2-responsive proteins MAPK, AKT and eNOS ([1]; coincident with receptor activation): phosphorylation of several known Tie 2-responsive proteins including MAPK, AKT and eNOS, was observed | Secretion of MMP2 (gelatin degradation, pro and active forms) [2]: dose-dependently degraded gelatin
